Assay results: PubChem BioAssay AID1645865 (Buhrlage Lab, Dana-Farber Cancer Institute and Novartis …, 2021)
Active and inactive are the calls of the source.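 The calls were made as follows: active = maximal inhibition of the USP30 enzyme reaching 30% or more across the dose series; inactive = the rest.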

What follows are compounds tested against Ubiquitin carboxyl-terminal hydrolase 30 (Homo sapiens) (UniProt Q70CQ3) (assay: ubiquitin-specific protease 30 DUB inhibitors, concentration-effect, biochemical, validation of primary actives (AID 1645865)). Conditions: purified USP30, Ub-rhodamine cleavage, fluorescence, 2 h.
Ubiquitin carboxyl-terminal hydrolase 30 (Homo sapiens), sequence (Q70CQ3 whole entry, looked up): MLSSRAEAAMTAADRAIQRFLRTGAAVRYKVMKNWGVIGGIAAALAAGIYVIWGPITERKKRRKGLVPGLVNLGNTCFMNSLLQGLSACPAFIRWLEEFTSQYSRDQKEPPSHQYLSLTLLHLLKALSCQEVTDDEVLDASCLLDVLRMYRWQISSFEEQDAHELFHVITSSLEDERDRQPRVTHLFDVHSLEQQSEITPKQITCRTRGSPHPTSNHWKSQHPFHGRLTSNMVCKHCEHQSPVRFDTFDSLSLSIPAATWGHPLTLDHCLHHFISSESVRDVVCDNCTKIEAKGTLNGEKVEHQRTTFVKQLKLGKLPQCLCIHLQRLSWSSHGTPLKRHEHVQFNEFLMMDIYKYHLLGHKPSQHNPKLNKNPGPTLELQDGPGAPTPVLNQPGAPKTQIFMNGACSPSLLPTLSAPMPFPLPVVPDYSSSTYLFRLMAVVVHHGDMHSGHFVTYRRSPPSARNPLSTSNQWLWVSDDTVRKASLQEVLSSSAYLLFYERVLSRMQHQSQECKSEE

Row | SMILES | IC50
1 | Cc1cccc(NC(=O)c2ccn(COc3ccc(F)cc3F)n2)c1C | > 50 µM (inactive)
2 | COc1cccc2cc(C(=O)Nc3nc(-c4ccncc4)cs3)oc12 | 0.161 µM
3 | COc1ccc(Cl)cc1NC(=O)Cn1c(=O)cc(C)c2c(C)nn(-c3ccccc3)c21 | 1.99 µM
4 | O=C(NCc1ccccc1)Nc1cccc2ccccc12 | 31.9 µM
5 | Cc1ccc(NC(=O)c2cc(-c3cccnc3)n(-c3ccccc3)n2)nc1 | 32.3 µM
6 | CCN(CC(=O)Nc1cc(C)on1)c1cccc2ccccc12 | > 50 µM (inactive)
7 | Cc1ccc(C(=O)Nc2nc3n(n2)C(c2ccccc2)CC(=O)N3)cc1 (centres undefined) | 24.4 µM
8 | Cc1nn(-c2ccccc2)c2c1N=C1C(Cl)=CC(Cl)=CN1C21C(=O)Nc2ccccc21 (centres undefined) | > 50 µM (inactive)
9 | Cc1ccc(C(=O)Nc2cc3c4c(c2)CC(=O)N4CCC3)cc1 | > 50 µM (inactive)
10 | COc1ccc(OC)c(CCNC(=O)CCC2=NS(=O)(=O)c3ccc(C(F)(F)F)cc3N2)c1 | 23.5 µM
11 | O=C(CSc1nc2ccccc2n1S(=O)(=O)c1ccc(Br)cc1)Nc1ccc([N+](=O)[O-])cc1Cl | 41 µM
12 | Fc1ccc(-c2noc(-c3nnc(NCc4cccnc4)c4ccccc34)n2)cc1 | 1.92 µM
13 | Cc1cc(C)c2cc(CN(CCc3ccccc3)C(=O)Nc3ccccc3)c(=O)[nH]c2c1 | > 50 µM (inactive)
14 | O=C(NCc1ccc(-c2nc3cnccc3o2)cc1)c1ccccc1F | 17.5 µM
15 | CC1=CC(=O)C(C2=C(O)C(=O)C(C)=CC2=O)=C(O)C1=O | 36.2 µM
16 | O=C(Cc1cccc2ccccc12)Nc1nc2ccc(F)cc2s1 | 45.4 µM
17 | CNS(=O)(=O)c1ccc(CNC(=O)c2cc(-c3ccc(C)cc3)no2)cc1 | 18 µM
18 | O=C(Nc1ccc(F)cc1)Nc1ccccc1OCc1cc(=O)n2ccccc2n1 | 3.88 µM
19 | COc1ccc(-c2nnc(SCc3ccccc3C#N)o2)c(OC)c1 | 49.7 µM
20 | Cc1ccc(NC(=O)c2nnn(-c3ccccc3)n2)cc1F | > 50 µM (inactive)
21 | O=C(Nc1ccc(-c2cn3ccccc3n2)cc1)C1C=C2C=C(Br)C=CC2OC1=O (centres undefined) | 0.337 µM
22 | O=C(Nc1ccc2c(c1)OCCO2)c1ccc(N2CCCCC2)nn1 | > 50 µM (inactive)
23 | CC1=C(C(=O)Nc2ccccc2C)C(c2ccc(OCc3ccccc3F)cc2)n2ncnc2N1 (centres undefined) | 30.6 µM
24 | Cc1sc(NC(=O)/C=C/c2ccco2)nc1-c1ccccc1 | > 50 µM (inactive)
25 | COc1ccc(NC(=O)c2ccc(Nc3nnc(C)c4ccccc34)cc2)cc1 | > 50 µM (inactive)

Row | SMILES | IC50
26 | CC(=O)c1cccc(NC(=O)c2ccc(N3CCCCC3)nn2)c1 | 35.6 µM
27 | O=C1Cc2ccccc2C(=O)N1c1ccc2c(c1)OCO2 | > 50 µM (inactive)
28 | COc1cc(-c2cc(C(=O)Nc3cc(C)[nH]n3)c3ccccc3n2)cc(OC)c1OC | 32.7 µM
29 | O=C(Nc1ccc2c(c1)N(C(=O)C1CCCC1)CC2)c1c(F)cccc1F | 24.2 µM
30 | NC(=O)C1(N2CCCCC2)CCN(C(=O)c2[nH]nc3c2CCc2ccccc2-3)CC1 | > 50 µM (inactive)
31 | CCc1ccc(C(C)NC(=O)C2CCN(c3ccc4nncn4n3)CC2)cc1 (centres undefined) | > 50 µM (inactive)
32 | O=C(Nc1cc(F)c2nc(N3CCOCC3)ccc2c1)c1ccc(Br)o1 | > 50 µM (inactive)
33 | Cn1ccc2c(cc(C(=O)NCCC3=CCCCC3)n2C)c1=O | > 50 µM (inactive)
34 | COC(=O)c1cc(C#N)c(NCc2ccccc2)nc1C | 10.1 µM
35 | O=C(Cn1c(=O)c2sccc2n(Cc2ccc([N+](=O)[O-])cc2)c1=O)NCCc1ccccc1 | 21.7 µM
36 | CO[C@H]1/C=C/OC2(C)Oc3c(C)c(O)c4c(c3C2=O)C2(C=C(NC(=O)/C(C)=C\C=C\[C@H](C)[C@H](O)[C@@H](C)[C@@H](O)[C@@H](C)[C@H](OC(C)=O)C1C)C4=O)OCC(=O)O2 (some centres undefined) | > 50 µM (inactive)
37 | Cc1cccc(C(=O)OCC(=O)Nc2ccc3[nH]c(=O)[nH]c3c2)c1C | 2.85 µM
38 | CCOC(=O)c1ccc(NC(=O)c2cnc(N3CCOCC3)nc2)cc1 | > 50 µM (inactive)
39 | CC(=O)Nc1ccc(-n2cnc(C(=O)NCc3ccc(C)cc3)c2)nc1 | 21.2 µM
40 | Cc1ccc(-n2nc(C)c3c2NC(=O)CC3C(=O)c2cc3ccccc3o2)cc1C (centres undefined) | > 50 µM (inactive)
41 | C=C1Nc2ccccc2C(=O)N1c1cccc(NC(=O)c2ccc(C)c(C)c2)c1 | > 50 µM (inactive)
42 | CS(=O)(=O)NC1CCCN(C(=O)Nc2cccc3ccccc23)C1 (centres undefined) | > 50 µM (inactive)
43 | CCCCc1ccc(-c2cc(C(=O)NCCN3CCOCC3)c3cc(Br)ccc3n2)cc1 | 2.31 µM
44 | Cc1cccc(C)c1NC(=O)Cn1c(=O)n(CCCCC(=O)NCc2ccc3c(c2)OCO3)c(=O)c2ccccc21 | 1.5 µM
45 | Cc1ccc2nc(CCc3ccc(NS(=O)(=O)c4cccc(Cl)c4C)cc3)[nH]c2c1 | 44.8 µM
46 | Cc1ccc(OC(=O)c2cn(-c3ccccc3)nc2-c2cccnc2)cc1 | > 50 µM (inactive)
47 | CC(C)Cc1cc(-c2nnc3sc(-c4ccco4)nn23)n[nH]1 | > 50 µM (inactive)
48 | CC(C)(C)c1ccc(C(=O)Nc2ccc(Oc3cccnc3)nc2)cc1 | > 50 µM (inactive)
49 | COc1ccc(Cn2cnc3c([nH]c4ccc(Br)cc43)c2=O)cc1 | 0.833 µM
